Paper PMC6222614, “Disubstituted 4-Chloro-3-nitrophenylthiourea Derivatives: Antimicrobial and Cytotoxic Studies” (Molecules : A Journal of Synthetic Chemistry and Natural …, 2018)
In brackets after ≈: the same amount, converted by molar mass.

Columns and labels:
[1] = Cytotoxicity against mock-infected MT-4 cells (MTT); assay type: cell-based, human; settings: human, concentration reducing viability of mock-infected MT-4 cells by 50%
Method: (§1) Cell line supporting the multiplication of Human Immunodeficiency Virus type-1 (HIV-1) was the CD4+ human T-cells, derived from human hematological tumors, containing an integrated HTLV-1 genome (MT-4). Cells were purchased from American Type Culture Collection (ATCC). Human Immunodeficiency Virus type-1 (HIV-1) IIIB laboratory strain was obtained from the supernatant of the persistently infected H9/IIIB cells (NIH 1983).
Exponentially growing MT-4 cells were seeded at an initial density of 1 × 10^5 cells/mL in 96-well plates in RPMI-1640 medium, supplemented with 10% fetal bovine serum (FBS), 100 units/mL penicillin G and 100 μg/mL streptomycin. Cell cultures were then incubated at 37 °C in a humidified, 5% CO2 atmosphere, in the absence or presence of serial dilutions of tested compounds. Cell viability was determined after 96 h at 37 °C by the 3-(4,5-dimethylthiazol-2-yl)-2,5-diphenyl-tetrazolium bromide (MTT) method.

HIV-1 IIIB = experiment: Anti-HIV-1 activity: protection of MT-4 cells from virus-induced cytopathogenicity (MTT); assay type: cell-based, Human Immunodeficiency Virus type-1; settings: Human immunodeficiency virus 1, IIIB, MT4, 96 h; 50% protection of MT-4 cells from HIV-1 induced cytopathogenicity, MTT, 4-day incubation; read-out: HIV-1IIIB EC50
From the text: as §1
The activity of compounds against HIV-1 was based on inhibition of virus-induced cytopathogenicity in MT-4 cell acutely infected with a multiplicity of infection (m.o.i.) of 0.01. Briefly, 50 μL of RPMI containing 1 × 10^4 MT-4 cells were added to each well of flat-bottom microtiter trays, containing 50 μL of RPMI without or with serial dilutions of test compounds. Then, 20 μL of a HIV-1 suspension containing 100 CCID50 were added. After a 4-day incubation at 37 °C, cell viability was determined by the MTT method.

B. cereus ATCC 11778 = experiment: MIC, twofold serial microdilution; assay type: cell-based; settings: Bacillus cereus, ATCC11778; standard strain, 18 h, 35 °C
Method: (§2) The antimicrobial activity of the compounds was tested on Gram-positive bacteria (Staphylococcus aureus NCTC 4163, Staphylococcus aureus ATCC 25923, Staphylococcus aureus ATCC 6538, Staphylococcus aureus ATCC 29213, Staphylococcus epidermidis ATCC 12228, Staphylococcus epidermidis ATCC 35984, Enterococcus faecalis ATCC 29212, Bacillus subtilis ATCC 6633, Bacillus cereus ATCC 11778, Micrococcus luteus ATCC 9341, Micrococcus luteus ATCC 10240); Gram-negative rods (Escherichia coli ATCC 10538, Escherichia coli ATCC 25922, Escherichia coli NCTC 8196, Proteus vulgaris NCTC 4635, Pseudomonas aeruginosa ATCC 15442, Pseudomonas aeruginosa NCTC 6749, Pseudomonas aeruginosa ATCC 27863, Bordetella bronchiseptica ATCC 4617) and yeasts (Candida albicans ATCC 10231, Candida albicans ATCC 90028, Candida parapsilosis ATCC 22019). Other microorganisms used were obtained from the collection of the Department of Pharmaceutical Microbiology, Medical University of Warsaw, Poland.
(§3) Antibacterial activity was examined by the disc-diffusion method under standard conditions using Mueller-Hinton II agar medium (Becton Dickinson) according to CLSI (previously NCCLS) guidelines. Antifungal activities were assessed using Mueller-Hinton agar + 2% glucose and 0.5 µg/mL Methylene Blue Dye Medium. Sterile filter paper discs (9 mm diameter, Whatman No 3 chromatography paper) were dripped with tested compound solutions (in DMSO) to load 400 μg of a given compound per disc. Dry discs were placed on the surface of appropriate agar medium. The results (diameter of the growth inhibition zone) were read after 18 h of incubation at 35 °C. Minimal Inhibitory Concentration (MIC) was tested by the twofold serial microdilution method (in 96-well microtiter plates) using Mueller-Hinton Broth medium (Beckton Dickinson) for bacteria or RPMI-1640 medium for Candida species according to CLSI guidelines. The stock solution of tested agent was prepared in DMSO and diluted in sterile water. Concentrations of tested agents ranged from 0.125 to 512 µg/mL. The final inoculum of all studied microorganisms was 10^5 CFU/ mL^−1 (colony forming units per mL). Minimal inhibitory concentrations (the lowest concentration of a tested agent that prevents visible growth of a microorganism) were read after 18 h (bacteria) or 24 h (yeasts) of incubation at 35 °C.

B. subtilis ATCC 6633 = experiment: MIC, twofold serial microdilution; assay type: cell-based; settings: Bacillus subtilis, ATCC6633; standard strain, 18 h, 35 °C
Method: as §2, §3

E. faecalis ATCC 29212 = experiment: MIC, twofold serial microdilution; assay type: cell-based; settings: Enterococcus faecalis, ATCC29212; standard strain, 18 h, 35 °C
Method: as §2, §3

M. luteus ATCC 10240 = experiment: MIC, twofold serial microdilution; assay type: cell-based; settings: Micrococcus luteus, ATCC10240; standard strain, 18 h, 35 °C
Method: as §2, §3

M. luteus ATCC 9341 = experiment: MIC, twofold serial microdilution; assay type: cell-based; settings: Micrococcus luteus, ATCC9341; standard strain, 18 h, 35 °C
Method: as §2, §3

S. aureus ATCC 25923 = experiment: MIC, twofold serial microdilution; assay type: cell-based; settings: Staphylococcus aureus, ATCC25923; standard strain, 18 h, 35 °C
Method: as §2, §3

S. aureus ATCC 29213 = experiment: MIC, twofold serial microdilution; assay type: cell-based; settings: Staphylococcus aureus, ATCC29213; standard strain, 18 h, 35 °C
Method: as §2, §3

S. aureus ATCC 6538 = experiment: MIC, twofold serial microdilution; assay type: cell-based; settings: Staphylococcus aureus, ATCC6538; standard strain, 18 h, 35 °C
Method: as §2, §3

S. aureus NCTC 4163 = experiment: MIC, twofold serial microdilution; assay type: cell-based; settings: Staphylococcus aureus, NCTC4163; standard strain, 18 h, 35 °C
Method: as §2, §3

[2] = test system: S. epidermidis ATCC 12228; experiment: MIC, twofold serial microdilution; assay type: cell-based; settings: Staphylococcus epidermidis, ATCC12228; standard strain, 18 h, 35 °C
Method: as §2, §3

[3] = test system: S. epidermidis ATCC 35984; experiment: MIC, twofold serial microdilution; assay type: cell-based; settings: Staphylococcus epidermidis, ATCC35984; standard strain, 18 h, 35 °C
Method: as §2, §3

[4] = test system: S. epidermidis MRSE 403/11; experiment: MIC, hospital methicillin-resistant strain; assay type: cell-based; settings: Staphylococcus epidermidis
Method: as §2, §3

[5] = test system: S. epidermidis MRSE 404/11; experiment: MIC, hospital methicillin-resistant strain; assay type: cell-based; settings: Staphylococcus epidermidis
Method: as §2, §3

[6] = test system: S. epidermidis MRSE 405/11; experiment: MIC, hospital methicillin-resistant strain; assay type: cell-based; settings: Staphylococcus epidermidis
Method: as §2, §3

[7] = test system: S. epidermidis MRSE 406/11; experiment: MIC, hospital methicillin-resistant strain; assay type: cell-based; settings: Staphylococcus epidermidis
Method: as §2, §3

[8] = test system: S. epidermidis MRSE 407/11; experiment: MIC, hospital methicillin-resistant strain; assay type: cell-based; settings: Staphylococcus epidermidis
Method: as §2, §3

[9] = test system: S. epidermidis MRSE 409/11; experiment: MIC, hospital methicillin-resistant strain; assay type: cell-based; settings: Staphylococcus epidermidis
Method: as §2, §3

[10] = test system: S. epidermidis MRSE 411/11; experiment: MIC, hospital methicillin-resistant strain; assay type: cell-based; settings: Staphylococcus epidermidis
Method: as §2, §3

[11] = test system: S. epidermidis MRSE 412/11; experiment: MIC, hospital methicillin-resistant strain; assay type: cell-based; settings: Staphylococcus epidermidis
Method: as §2, §3

[12] = test system: S. epidermidis MRSE 413/11; experiment: MIC, hospital methicillin-resistant strain; assay type: cell-based; settings: Staphylococcus epidermidis
Method: as §2, §3

[13] = test system: S. epidermidis MRSE 422/11; experiment: MIC, hospital methicillin-resistant strain; assay type: cell-based; settings: Staphylococcus epidermidis
Method: as §2, §3

staphylococci = experiment: MIC against staphylococci; assay type: cell-based; settings: moderate activity
Method: as §2, §3

Row | MIC (B. cereus ATCC 11778) | MIC (B. subtilis ATCC 6633) | MIC (E. faecalis ATCC 29212) | MIC (M. luteus ATCC 10240) | MIC (M. luteus ATCC 9341) | MIC (S. aureus ATCC 25923) | MIC (S. aureus ATCC 29213) | MIC (S. aureus ATCC 6538) | MIC (S. aureus NCTC 4163) | MIC [2] | MIC [3] | MIC [4] | MIC [5] | MIC [6] | MIC [7] | MIC [8] | MIC [9] | MIC [10] | MIC [11] | MIC [12] | Structure (SMILES) | also measured
1 | 8 µg/mL (≈ 28 µM) | 16 µg/mL (≈ 56 µM) | 64 µg/mL (≈ 224 µM) | 32 µg/mL (≈ 112 µM) | 16 µg/mL (≈ 56 µM) | 16 µg/mL (≈ 56 µM) | 16 µg/mL (≈ 56 µM) | 16 µg/mL (≈ 56 µM) | 16 µg/mL (≈ 56 µM) | 16 µg/mL (≈ 56 µM) | 16 µg/mL (≈ 56 µM) | 32 µg/mL (≈ 112 µM) | 32 µg/mL (≈ 112 µM) | 32 µg/mL (≈ 112 µM) | 32 µg/mL (≈ 112 µM) | 32 µg/mL (≈ 112 µM) | 32 µg/mL (≈ 112 µM) | 32 µg/mL (≈ 112 µM) | 64 µg/mL (≈ 224 µM) | 32 µg/mL (≈ 112 µM) | C=C(C)CNC(=S)Nc1ccc(Cl)c([N+](=O)[O-])c1 [Compound 27, 1-(4-chloro-3-nitrophenyl)-3-(2-methylprop-2-en-1-yl)thiourea] | CC50 at 96 h [1]: 15.5 µM; EC50 (HIV-1 IIIB): > 15.5 µM; MIC [13]: 64 µg/mL (≈ 224 µM); MIC range towards staphylococci (staphylococci): 8 to 16 µg/mL; melting point: 96 to 98 °C
2 | 16 µg/mL (≈ 51.3 µM) | 16 µg/mL (≈ 51.3 µM) | 32 µg/mL (≈ 103 µM) | 16 µg/mL (≈ 51.3 µM) | 16 µg/mL (≈ 51.3 µM) | 8 µg/mL (≈ 25.7 µM) | 16 µg/mL (≈ 51.3 µM) | 16 µg/mL (≈ 51.3 µM) | 16 µg/mL (≈ 51.3 µM) | 32 µg/mL (≈ 103 µM) | 32 µg/mL (≈ 103 µM) | 32 µg/mL (≈ 103 µM) | 32 µg/mL (≈ 103 µM) | 32 µg/mL (≈ 103 µM) | 64 µg/mL (≈ 205 µM) | 32 µg/mL (≈ 103 µM) | 32 µg/mL (≈ 103 µM) | 32 µg/mL (≈ 103 µM) | 32 µg/mL (≈ 103 µM) | 32 µg/mL (≈ 103 µM) | O=[N+]([O-])c1cc(NC(=S)NCc2ccco2)ccc1Cl [Compound 30, 1-(4-chloro-3-nitrophenyl)-3-(furan-2-ylmethyl)thiourea] | CC50 at 96 h [1]: 25.6 µM; EC50 (HIV-1 IIIB): > 25.6 µM; MIC [13]: 32 µg/mL (≈ 103 µM); MIC range towards staphylococci (staphylococci): 8 to 16 µg/mL; melting point: 144 to 146 °C
3 | 0.25 µg/mL (≈ 0.754 µM) | < 0.12 µg/mL | 1 µg/mL (≈ 3.02 µM) | 2 µg/mL (≈ 6.04 µM) | 1 µg/mL (≈ 3.02 µM) | 0.5 µg/mL (≈ 1.51 µM) | 0.5 µg/mL (≈ 1.51 µM) | 0.25 µg/mL (≈ 0.754 µM) | 0.25 µg/mL (≈ 0.754 µM) | 0.25 µg/mL (≈ 0.754 µM) | 0.25 µg/mL (≈ 0.754 µM) | 16 µg/mL (≈ 48.3 µM) | 64 µg/mL (≈ 193 µM) | 4 µg/mL (≈ 12.1 µM) | 0.5 µg/mL (≈ 1.51 µM) | 64 µg/mL (≈ 193 µM) | 2 µg/mL (≈ 6.04 µM) | 4 µg/mL (≈ 12.1 µM) | 64 µg/mL (≈ 193 µM) | 32 µg/mL (≈ 96.6 µM) | O=C(O)c1cn(C2CC2)c2cc(N3CCNCC3)c(F)cc2c1=O [Ciprofloxacin, reference compound] | MIC [13]: 4 µg/mL (≈ 12.1 µM)
